According to ChEMBL document CHEMBL4765455, “Design, synthesis, and biological evaluations of novel 3-amino-4-ethynyl indazole derivatives as Bcr-Abl kinase inhibitors with potent cellular antileukemic activity” (Eur J Med Chem, 2020):

Experiments:
Bcr/Abl fusion protein = Bcr/Abl fusion protein (Homo sapiens, UniProt P00519, T315I); test: Inhibition of BCR-ABL T315I mutant (unknown origin) incubated for 40 mins in presence of [gamma33P]ATP by scintillation method; assay type: protein assay
[1] = biological target: Serine/threonine-protein kinase B-raf (Homo sapiens, UniProt P15056); test: Inhibition of BRAF (unknown origin) at 1 uM relative to control
[2] = biological target: T1, Proto-oncogene tyrosine-protein kinase Src (Homo sapiens, UniProt P12931); test: Inhibition of c-Src (unknown origin) at 1 uM relative to control
[3] = biological target: Receptor-type tyrosine-protein kinase FLT3 (Homo sapiens) (UniProt P36888); test: Inhibition of FLT3 (unknown origin) at 1 uM relative to control
[4] = biological target: Epidermal growth factor receptor (Homo sapiens) (UniProt P00533); test: Inhibition of EGFR (unknown origin) at 1 uM relative to control
[5] = biological target: Cyclin-dependent kinase 4/cyclin D1 (Homo sapiens) (UniProt P11802+P24385); test: Inhibition of CDK4/cyclinD1 (unknown origin) at 1 uM relative to control; assay type: protein-complex assay
[6] = biological target: Serine/threonine-protein kinase Chk1 (Homo sapiens) (UniProt O14757); test: Inhibition of CHK1 (unknown origin) at 1 uM relative to control
[7] = biological target: Death-associated protein kinase 1 (Homo sapiens) (UniProt P53355); test: Inhibition of DAPK1 (unknown origin) at 1 uM relative to control
[8] = biological target: Focal adhesion kinase 1 (Homo sapiens) (UniProt Q05397); test: Inhibition of FAK/PTK2 (unknown origin) at 1 uM relative to control
[9] = biological target: Tyrosine-protein kinase JAK2 (Homo sapiens) (UniProt O60674); test: Inhibition of JAK2 (unknown origin) at 1 uM relative to control
[10] = biological target: Dual specificity mitogen-activated protein kinase kinase 1 (Homo sapiens) (UniProt Q02750); test: Inhibition of MEK1 (unknown origin) at 1 uM relative to control
[11] = biological target: Serine/threonine-protein kinase pim-1 (Homo sapiens) (UniProt P11309); test: Inhibition of PIM1 (unknown origin) at 1 uM relative to control
[12] = biological target: Rho-associated protein kinase 1 (Homo sapiens) (UniProt Q13464); test: Inhibition of ROCK1 (unknown origin) at 1 uM relative to control
[13] = biological target: Proto-oncogene tyrosine-protein kinase ROS (Homo sapiens) (UniProt P08922); test: Inhibition of ROS/ROS1 (unknown origin) at 1 uM relative to control
[14] = biological target: Tyrosine-protein kinase SYK (Homo sapiens) (UniProt P43405); test: Inhibition of SYK (unknown origin) at 1 uM relative to control
[15] = biological target: High affinity nerve growth factor receptor (Homo sapiens) (UniProt P04629); test: Inhibition of TRKA (unknown origin) at 1 uM relative to control
[16] = biological target: T1, Proto-oncogene tyrosine-protein kinase Src; test: Inhibition of c-Src (unknown origin) in presence of ATP
[17] = biological target: Receptor-type tyrosine-protein kinase FLT3 (Homo sapiens, UniProt P36888); test: Inhibition of FLT3 (unknown origin) in presence of ATP
[18] = biological target: Macrophage colony-stimulating factor 1 receptor (Homo sapiens, UniProt P07333); test: Inhibition of FMS (unknown origin) in presence of ATP
Homo sapiens [19] = organism: Homo sapiens; test: Selectivity index, ratio of IC50 for FMS (unknown origin) to IC50 for Bcr-Abl (unknown origin)
K562 [20] = test: Antiproliferative activity against human K562 cells assessed as cell growth inhibition incubated for 72 hrs by MTT assay; assay type: functional
[21] = Antiproliferative activity against human L132 cells assessed as cell growth inhibition incubated for 72 hrs by MTT assay; assay type: cell-based
K562 [22] = test: Antiproliferative activity against human K562 cells assessed as cell growth inhibition at 10 uM measured after 48 hrs by SRB assay relative to control; assay type: functional; conditions: read-out: GI
K562 [23] = test: Antiproliferative activity against human K562 cells assessed as cell growth inhibition measured after 48 hrs by SRB assay; assay type: functional
HL-60(TB) [24] = test: Antiproliferative activity against human HL-60(TB) cells assessed as cell growth inhibition at 10 uM measured after 48 hrs by SRB assay relative to control; assay type: functional; conditions: read-out: GI
HL-60(TB) [25] = test: Antiproliferative activity against human HL-60(TB) cells assessed as cell growth inhibition measured after 48 hrs by SRB assay; assay type: functional
MOLT-4 [26] = test: Antiproliferative activity against human MOLT-4 cells assessed as cell growth inhibition at 10 uM measured after 48 hrs by SRB assay relative to control; assay type: functional; conditions: read-out: GI
MOLT-4 [27] = test: Antiproliferative activity against human MOLT-4 cells assessed as cell growth inhibition measured after 48 hrs by SRB assay; assay type: functional
RPMI-8226 = test: Antiproliferative activity against human RPMI-8226 cells assessed as cell growth inhibition at 10 uM measured after 48 hrs by SRB assay relative to control; assay type: functional; conditions: read-out: GI
SR = test: Antiproliferative activity against human SR cells assessed as cell growth inhibition at 10 uM measured after 48 hrs by SRB assay relative to control; assay type: functional; conditions: read-out: GI
[28] = Selectivity index, ratio of GI50 for human HL60(TB) cells to GI50 for human K562 cells; assay type: functional
[29] = biological target: Tyrosine-protein kinase ABL1 (Homo sapiens, UniProt P00519); test: Inhibition of NanoLuc-fused ABL1 (unknown origin) expressed in human HEK293 cells incubated for 2 to 3 mins by NanoBRET assay; assay type: cell-based
Homo sapiens [30] = organism: Homo sapiens; test: Selectivity index, ratio of IC50 for human ERG to EC50 for ABL1 (unknown origin) expressed in human HEK293 cells; assay type: cell-based
Homo sapiens [31] = organism: Homo sapiens; test: Potency index, ratio of test compound IC50 to E4031 IC50 for human […]
[32] = Tmax in ICR mouse at 10 mg/kg, po measured up to 8 hrs by LC-MS/MS analysis; assay type: ADME, organism-based; conditions: in vivo
[33] = Cmax in ICR mouse at 10 mg/kg, po measured up to 8 hrs by LC-MS/MS analysis; assay type: ADME, organism-based; design: route oral, dose 10 mg/kg, time <=8; conditions: in vivo
[34] = Half life in ICR mouse at 5 mg/kg, iv measured up to 8 hrs by LC-MS/MS analysis; assay type: ADME, organism-based; conditions: in vivo
[35] = Half life in ICR mouse at 10 mg/kg, po measured up to 8 hrs by LC-MS/MS analysis; assay type: ADME, organism-based; conditions: in vivo
[36] = AUClast in ICR mouse at 10 mg/kg, po measured up to 8 hrs by LC-MS/MS analysis; assay type: ADME, organism-based; design: route oral, dose 10 mg/kg, time <=8; conditions: in vivo
[37] = Clearance in ICR mouse at 5 mg/kg, iv measured up to 8 hrs by LC-MS/MS analysis; assay type: ADME, organism-based; conditions: in vivo
[38] = Mean residence time in ICR mouse at 10 mg/kg, po measured up to 8 hrs by LC-MS/MS analysis; assay type: ADME, organism-based; conditions: in vivo
[39] = Volume of distribution at steady state in ICR mouse at 5 mg/kg, iv measured up to 8 hrs by LC-MS/MS analysis; assay type: ADME, organism-based; conditions: in vivo, read-out: Vdss
[40] = Oral bioavailability in ICR mouse at 10 mg/kg measured up to 8 hrs by LC-MS/MS analysis; assay type: ADME, organism-based; conditions: in vivo

T1 sequence (P12931 2-536 limits assumed): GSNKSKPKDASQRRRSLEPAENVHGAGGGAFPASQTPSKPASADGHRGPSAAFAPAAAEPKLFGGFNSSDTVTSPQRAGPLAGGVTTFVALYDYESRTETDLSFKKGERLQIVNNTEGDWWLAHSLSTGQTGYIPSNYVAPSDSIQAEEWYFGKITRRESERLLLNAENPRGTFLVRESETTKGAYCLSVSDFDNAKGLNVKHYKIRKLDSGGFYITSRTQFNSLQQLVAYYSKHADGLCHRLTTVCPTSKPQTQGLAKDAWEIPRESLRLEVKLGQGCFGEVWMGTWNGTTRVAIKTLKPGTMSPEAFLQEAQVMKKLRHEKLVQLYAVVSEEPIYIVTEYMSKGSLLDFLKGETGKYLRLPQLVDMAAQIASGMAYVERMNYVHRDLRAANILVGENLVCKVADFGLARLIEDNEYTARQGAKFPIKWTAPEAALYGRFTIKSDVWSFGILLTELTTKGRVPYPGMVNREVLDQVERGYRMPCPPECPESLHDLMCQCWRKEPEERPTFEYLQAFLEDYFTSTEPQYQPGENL
Sequence of Rho-associated protein kinase 1 (Homo sapiens) (Q13464 2-1354 limits assumed): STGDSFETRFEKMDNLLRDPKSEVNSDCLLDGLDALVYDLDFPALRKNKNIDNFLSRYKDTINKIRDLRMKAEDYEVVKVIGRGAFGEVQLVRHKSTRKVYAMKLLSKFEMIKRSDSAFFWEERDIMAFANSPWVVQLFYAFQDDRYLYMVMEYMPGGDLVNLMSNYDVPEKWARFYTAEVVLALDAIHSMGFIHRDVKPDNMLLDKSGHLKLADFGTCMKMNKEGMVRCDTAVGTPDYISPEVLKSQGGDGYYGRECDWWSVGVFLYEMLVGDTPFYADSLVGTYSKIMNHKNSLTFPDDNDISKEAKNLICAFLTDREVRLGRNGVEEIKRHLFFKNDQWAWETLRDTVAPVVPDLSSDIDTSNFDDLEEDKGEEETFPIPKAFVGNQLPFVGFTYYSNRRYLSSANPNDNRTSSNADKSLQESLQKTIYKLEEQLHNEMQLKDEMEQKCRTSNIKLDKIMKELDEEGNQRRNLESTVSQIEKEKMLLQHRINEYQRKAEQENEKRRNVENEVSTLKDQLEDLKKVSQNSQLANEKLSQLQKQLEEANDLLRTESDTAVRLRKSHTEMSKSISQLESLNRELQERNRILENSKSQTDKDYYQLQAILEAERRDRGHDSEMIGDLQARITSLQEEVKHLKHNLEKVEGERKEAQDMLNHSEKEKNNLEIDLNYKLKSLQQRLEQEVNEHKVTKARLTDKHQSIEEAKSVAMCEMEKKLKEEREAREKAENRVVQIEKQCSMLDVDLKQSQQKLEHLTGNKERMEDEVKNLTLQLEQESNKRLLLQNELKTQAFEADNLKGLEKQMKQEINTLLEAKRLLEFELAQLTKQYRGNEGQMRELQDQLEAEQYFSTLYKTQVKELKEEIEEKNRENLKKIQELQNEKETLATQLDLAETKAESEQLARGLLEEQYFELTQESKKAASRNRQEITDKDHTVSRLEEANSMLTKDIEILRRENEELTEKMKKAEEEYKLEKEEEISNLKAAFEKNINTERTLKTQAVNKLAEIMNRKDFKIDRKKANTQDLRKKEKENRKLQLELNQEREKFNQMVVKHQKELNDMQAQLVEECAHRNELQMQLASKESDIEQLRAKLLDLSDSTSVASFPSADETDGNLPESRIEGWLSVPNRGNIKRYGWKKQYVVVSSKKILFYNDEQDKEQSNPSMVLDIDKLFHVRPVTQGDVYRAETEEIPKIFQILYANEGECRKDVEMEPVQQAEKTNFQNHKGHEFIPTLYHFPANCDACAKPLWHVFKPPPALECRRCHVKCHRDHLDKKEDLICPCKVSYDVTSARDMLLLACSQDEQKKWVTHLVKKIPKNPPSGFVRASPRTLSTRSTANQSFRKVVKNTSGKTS
Sequence of Tyrosine-protein kinase JAK2 (Homo sapiens) (O60674 whole entry): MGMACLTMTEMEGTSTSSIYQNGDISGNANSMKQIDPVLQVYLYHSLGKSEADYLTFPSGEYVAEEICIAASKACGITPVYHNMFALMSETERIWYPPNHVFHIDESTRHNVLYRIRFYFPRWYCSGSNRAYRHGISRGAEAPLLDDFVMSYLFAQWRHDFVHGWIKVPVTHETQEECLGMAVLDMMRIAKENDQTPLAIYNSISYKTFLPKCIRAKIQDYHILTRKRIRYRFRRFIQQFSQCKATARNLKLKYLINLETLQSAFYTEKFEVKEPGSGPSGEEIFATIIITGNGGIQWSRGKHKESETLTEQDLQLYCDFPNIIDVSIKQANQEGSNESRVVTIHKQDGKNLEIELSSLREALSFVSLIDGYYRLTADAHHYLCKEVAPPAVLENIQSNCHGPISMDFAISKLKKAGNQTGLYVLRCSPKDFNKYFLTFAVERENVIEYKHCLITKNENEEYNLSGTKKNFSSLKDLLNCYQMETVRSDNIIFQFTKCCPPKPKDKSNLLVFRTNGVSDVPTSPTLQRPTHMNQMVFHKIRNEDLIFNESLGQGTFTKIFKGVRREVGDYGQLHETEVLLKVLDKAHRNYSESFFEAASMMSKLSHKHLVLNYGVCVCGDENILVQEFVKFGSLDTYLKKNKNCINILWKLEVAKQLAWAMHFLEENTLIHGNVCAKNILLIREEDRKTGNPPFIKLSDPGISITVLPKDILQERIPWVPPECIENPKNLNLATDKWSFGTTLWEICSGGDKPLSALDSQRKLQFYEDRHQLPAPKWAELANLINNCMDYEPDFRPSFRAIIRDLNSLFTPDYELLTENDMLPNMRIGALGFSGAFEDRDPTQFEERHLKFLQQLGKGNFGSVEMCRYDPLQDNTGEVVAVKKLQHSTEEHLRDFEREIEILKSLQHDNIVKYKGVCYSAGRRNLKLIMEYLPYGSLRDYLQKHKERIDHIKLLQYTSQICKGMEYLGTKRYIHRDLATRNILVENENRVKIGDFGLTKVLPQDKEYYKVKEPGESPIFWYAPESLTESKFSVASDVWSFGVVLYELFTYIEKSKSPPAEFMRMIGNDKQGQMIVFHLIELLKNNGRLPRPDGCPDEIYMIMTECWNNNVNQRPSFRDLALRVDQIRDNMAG
Sequence of High affinity nerve growth factor receptor (Homo sapiens) (P04629 33-796 limits assumed): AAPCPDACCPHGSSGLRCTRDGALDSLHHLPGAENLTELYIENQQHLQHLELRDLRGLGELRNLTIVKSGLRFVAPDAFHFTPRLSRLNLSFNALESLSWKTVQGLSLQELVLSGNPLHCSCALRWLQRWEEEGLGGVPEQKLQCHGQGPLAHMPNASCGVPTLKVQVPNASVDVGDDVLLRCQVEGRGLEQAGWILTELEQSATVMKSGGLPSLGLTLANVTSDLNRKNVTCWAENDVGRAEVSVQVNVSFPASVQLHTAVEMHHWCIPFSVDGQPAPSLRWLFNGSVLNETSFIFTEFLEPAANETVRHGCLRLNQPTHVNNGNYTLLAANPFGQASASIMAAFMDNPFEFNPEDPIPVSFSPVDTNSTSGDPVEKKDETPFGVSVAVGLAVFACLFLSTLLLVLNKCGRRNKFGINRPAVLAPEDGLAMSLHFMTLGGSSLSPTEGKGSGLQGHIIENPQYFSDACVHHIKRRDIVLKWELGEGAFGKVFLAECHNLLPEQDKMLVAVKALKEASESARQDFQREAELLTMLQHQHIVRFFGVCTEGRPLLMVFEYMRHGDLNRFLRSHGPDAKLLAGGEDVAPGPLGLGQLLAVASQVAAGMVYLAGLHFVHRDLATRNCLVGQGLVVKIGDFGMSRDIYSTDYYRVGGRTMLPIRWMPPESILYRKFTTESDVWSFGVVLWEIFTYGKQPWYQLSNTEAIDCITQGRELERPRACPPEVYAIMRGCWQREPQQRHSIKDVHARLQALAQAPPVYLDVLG
Sequence of Serine/threonine-protein kinase pim-1 (Homo sapiens) (P11309 whole entry, looked up): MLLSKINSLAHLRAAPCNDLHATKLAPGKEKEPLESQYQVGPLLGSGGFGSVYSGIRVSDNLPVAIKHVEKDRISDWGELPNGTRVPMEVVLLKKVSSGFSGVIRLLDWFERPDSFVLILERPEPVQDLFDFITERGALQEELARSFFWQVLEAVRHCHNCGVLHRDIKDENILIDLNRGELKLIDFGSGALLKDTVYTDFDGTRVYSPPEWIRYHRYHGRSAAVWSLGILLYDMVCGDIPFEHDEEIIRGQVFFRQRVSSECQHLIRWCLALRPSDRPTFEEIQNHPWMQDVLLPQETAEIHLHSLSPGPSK
Sequence of Serine/threonine-protein kinase Chk1 (Homo sapiens) (O14757 whole entry): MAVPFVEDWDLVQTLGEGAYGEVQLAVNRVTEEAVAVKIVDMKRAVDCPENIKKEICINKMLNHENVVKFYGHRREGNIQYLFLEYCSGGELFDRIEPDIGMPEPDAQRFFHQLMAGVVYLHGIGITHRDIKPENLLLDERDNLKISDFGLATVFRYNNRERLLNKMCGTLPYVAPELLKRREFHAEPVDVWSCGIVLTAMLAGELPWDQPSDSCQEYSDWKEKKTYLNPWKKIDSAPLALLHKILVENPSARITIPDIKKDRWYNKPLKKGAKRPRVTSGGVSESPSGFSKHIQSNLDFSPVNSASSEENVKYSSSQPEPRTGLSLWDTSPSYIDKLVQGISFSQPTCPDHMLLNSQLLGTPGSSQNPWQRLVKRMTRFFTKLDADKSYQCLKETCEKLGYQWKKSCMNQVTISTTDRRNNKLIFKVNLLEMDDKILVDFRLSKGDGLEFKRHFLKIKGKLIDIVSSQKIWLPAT
Sequence of Dual specificity mitogen-activated protein kinase kinase 1 (Homo sapiens) (Q02750 whole entry): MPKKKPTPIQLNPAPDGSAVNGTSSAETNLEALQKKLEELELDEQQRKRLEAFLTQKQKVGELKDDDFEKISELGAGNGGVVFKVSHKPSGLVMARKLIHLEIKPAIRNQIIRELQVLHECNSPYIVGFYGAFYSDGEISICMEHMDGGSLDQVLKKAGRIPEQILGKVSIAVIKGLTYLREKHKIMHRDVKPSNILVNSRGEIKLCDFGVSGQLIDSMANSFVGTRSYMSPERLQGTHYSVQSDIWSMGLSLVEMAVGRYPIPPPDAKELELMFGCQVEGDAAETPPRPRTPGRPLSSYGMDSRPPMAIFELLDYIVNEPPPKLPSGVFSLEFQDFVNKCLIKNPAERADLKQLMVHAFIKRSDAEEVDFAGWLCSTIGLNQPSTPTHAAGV

## Nc1n[nH]c2cccc(C#Cc3cccc(NC(=O)c4ccc(N5CCOCC5)c(C(F)(F)F)c4)c3)c12
Bcr/Abl fusion protein
  IC50: 227 nM
[1]
  inhibition: 87.8%
[2]
  inhibition: 87.8%
[3]
  inhibition: 87.8%
[4]
  inhibition: 43.4%
[5]
  inhibition: < 30%
[6]
  inhibition: < 30%
[7]
  inhibition: < 30%
[8]
  inhibition: < 30%
[9]
  inhibition: < 30%
[10]
  inhibition: < 30%
[11]
  inhibition: < 30%
[12]
  inhibition: < 30%
[13]
  inhibition: < 30%
[14]
  inhibition: < 30%
[15]
  inhibition: < 30%
[16]
  IC50: 66 nM
[17]
  IC50: 535 nM
[18]
  IC50: 16.2 nM
Homo sapiens [19]
  Ratio IC50: 3.5
K562 [20]
  GI50: 20 nM
[21]
  GI50 at 72 h: 9270 nM
K562 [22]
  inhibition of growth at 10 µM: 99%
K562 [23]
  GI50: < 10 nM
HL-60(TB) [24]
  inhibition of growth at 10 µM: 98%
HL-60(TB) [25]
  GI50: 1400 nM
MOLT-4 [26]
  inhibition of growth at 10 µM: 92.3%
MOLT-4 [27]
  GI50: 1310 nM
RPMI-8226
  inhibition of growth at 10 µM: > 100%
SR
  inhibition of growth at 10 µM: 87.4%
[28]
  RatioGI50: 140
[29]
  EC50: 14.6 nM
Homo sapiens [30]
  Ratio IC50/EC50: 233
Homo sapiens [31]
  Ratio IC50: 310
[32]
  Tmax: 0.6 h
[33]
  Cmax: 113 ng/mL
[34]
  half-life: 3.5 h
[35]
  half-life: 0.7 h
[36]
  AUC(0-t) at 8 h: 175 ng·h/mL
[37]
  clearance: 5 mL/min/kg
[38]
  MRT: 1.3 h
[39]
  Vd: 1.4 L/kg
[40]
  bioavailability: 0.6%
